One series has as its target T1, LRRK2/PP1 interaction (Homo sapiens, UniProt P62136).
T1 construct: MDA-MB231 cells were lysed and cytoplasmic extracts immunoprecipitated with anti-PP1 antibody (Santa Cruz); endogenous in cells; host or cells: MDA-MB231
In words: In vitro competition of LRRK2/PP1 interaction in anti-PP1 immunoprecipitates (western blot). The class given is binding. As to conditions: 1 mM peptide, 30 min room temperature, MDA-MB231 lysates. As for the experimental part: The protocol was previously described. Briefly, cells (5x10^6) were lysed for 20 min at 4°C in lysis buffer (50 mM Tris pH8, 1% NP40, 137 mM NaCl, 1 mM MgCl2, 1 mM CaCl2, 10% glycerol and protease inhibitor mixture Sigma Aldrich). Lysates (500 μg) were immunoprecipitated with the appropriated antibody overnight at 4°C and protein A/G Sepharose (Santa Cruz) was added for 1h at 4°C. After washing with 1x TBST (20 mM Tris-HCl pH7.5, 150 mM NaCl, 0.05% Tween 20), the PP1/LRRK2 interaction was competed using 1 mM of the Mut3DPT-LRRK2-Long or Mut3DPT-LRRK2-Shor peptide for 30 min at room temperature. After several washing steps, immunoprecipitates were separated by SDS-PAGE, transferred to nitrocellulose and blotted with anti PP1 antibody (Santa Cruz or Thermo Fisher 1:500 dilution). The membrane was washed and incubated with PO-conjugates secondary antibody (Dako, 1:1000 dilution). Protein detection was performed using the ECL system (Bio-Rad). As internal control, the blot was also hybridized with anti-LRRK2 antibody (Abcam, ab133474, 1;500 dilution). Western blots were densitometred using Image J. Statistic analysis were done using Anova.
In general terms: In western blotting, separated proteins are transferred to a membrane and probed.

Series [1] in a line: Analysis of peptide integrity in human serum (MALDI-TOF MS). The series is classed as in vitro ADME. As to conditions: 37°C, different periods of time, mass spectrometry. On the procedure:
Peptides were incubated at 37°C in 250 μl of human serum (Sigma Aldrich) for different periods of time. Samples were collected and peptide degradation stopped by freezing. Peptides were extracted from samples using the Proteo Miner Protein Enrichment System (Bio-Rad). Percentage of intact peptide was estimated by mass spectrometry (MS) using MALDI-TOFF as described previously[19] (Bruker Autoflex II) following their protocol. Measurements were performed in triplicate. MS data were analysed using the software Cliprot tools, Felx analysis, Bruker.

No end group written: not given here.

T1 sequence (P62136 whole entry): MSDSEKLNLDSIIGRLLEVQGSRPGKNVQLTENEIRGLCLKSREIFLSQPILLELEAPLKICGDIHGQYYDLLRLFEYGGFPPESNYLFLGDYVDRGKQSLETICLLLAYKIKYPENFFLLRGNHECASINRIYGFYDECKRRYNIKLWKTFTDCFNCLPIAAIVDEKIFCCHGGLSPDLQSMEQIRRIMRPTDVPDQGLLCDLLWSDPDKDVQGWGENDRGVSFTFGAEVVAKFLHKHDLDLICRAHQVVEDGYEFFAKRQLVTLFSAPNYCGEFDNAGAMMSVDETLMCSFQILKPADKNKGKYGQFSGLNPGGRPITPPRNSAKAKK

On to “VKKKKIKAEIKI [Mut3DPT, Optimized cell penetrating peptide (shuttle alone), derived from DPT-Sh1]”, for which the “Competition of LRRK2/PP1 interaction (LRRK2 detected in anti-PP1 immunoprecipitates)” value at LRRK2/PP1 interaction was “LRRK2 was detected”.
“THRPPMWSPVWPGFWSRLINRLLEI [BBB-LRRK2-Short]”: in series [1], the “Resistance to degradation by proteases in human serum” value was “only very limited degradation”.
In the case of “THRPPMWSPVWPPMGFWSRLINRLLEISPY [BBB-LRRK2-Long]”, the “Resistance to degradation by proteases in human serum” value in series [1] is listed as “only very limited degradation”.

Values taken from publication PMC7425875, “Identification of peptides interfering with the LRRK2/PP1 interaction” (PLoS ONE, 2020).
